Reference: paper PMC8863579, “Effects of pharmacological inhibition of the sodium‐dependent phosphate cotransporter 2b (NPT2b) on intestinal phosphate absorption in mouse and rat models” (Pharmacology Research & Perspectives, 2022)

Tests used:
[1] = target: T1, Human NPT2a (Homo sapiens, UniProt Q06495); experiment: 33P-phosphate uptake in CHO cells expressing human NPT2a; assay type: cell-based
T1 construct: Full Length cDNA Cloning and Generation of Cell Lines Over-Expressing Human NPT2a, NPT2c, Pit1, and Pit2; host or cells: CHO-K1 / T-REx CHO, pJTI R4 CMV-TO, tetracycline-induced
T1 sequence (Q06495 1-639): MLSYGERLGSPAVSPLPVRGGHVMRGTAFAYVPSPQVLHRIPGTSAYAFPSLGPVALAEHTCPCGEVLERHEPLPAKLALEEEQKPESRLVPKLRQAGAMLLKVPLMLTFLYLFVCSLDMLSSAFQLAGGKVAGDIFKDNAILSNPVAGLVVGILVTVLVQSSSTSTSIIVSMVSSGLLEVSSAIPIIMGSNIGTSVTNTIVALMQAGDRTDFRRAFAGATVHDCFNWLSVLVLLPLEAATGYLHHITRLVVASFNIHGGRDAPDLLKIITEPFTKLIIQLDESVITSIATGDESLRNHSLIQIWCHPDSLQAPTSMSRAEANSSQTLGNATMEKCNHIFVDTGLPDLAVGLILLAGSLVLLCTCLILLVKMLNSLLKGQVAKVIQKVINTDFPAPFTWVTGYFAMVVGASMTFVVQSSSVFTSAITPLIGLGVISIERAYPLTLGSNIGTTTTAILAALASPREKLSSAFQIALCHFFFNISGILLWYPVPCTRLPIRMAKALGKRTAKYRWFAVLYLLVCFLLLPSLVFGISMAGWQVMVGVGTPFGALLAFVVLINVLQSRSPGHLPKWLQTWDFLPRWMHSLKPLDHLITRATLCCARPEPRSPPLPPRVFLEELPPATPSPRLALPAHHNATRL
Experimental: (§1) T‐Rex™ Chinese Hamster Ovary cells (CHO; Thermo Fisher Scientific) stably expressing human, mouse, or rat NPT2b under a tetracycline‐inducible promoter were generated using standard cDNA transfection and clone selection procedures (see Supporting Information). Cells were plated in 96‐well CytoStar‐T® scintillating microplates and were incubated overnight in growth media plus 100 ng/ml of tetracycline to induce expression of NPT2b. The next day, cells were washed 3 times with 200 µl assay buffer (137 mM NaCl, 5.4 mM KCl, 2.8 mM CaCl2, 1.2 mM MgSO4, and 14 mM Tris‐HCl buffer, pH 7.5). LY3358966 serially diluted 1‐to‐3 in DMSO was added to cells with assay buffer. An equal volume of H3 ^33PO4 (PerkinElmer) in assay buffer supplemented with 5 µM potassium phosphate was then added to initiate radiolabeled phosphate (^33P‐phosphate) uptake. […] The plate was immediately read on a Wallac MicroBeta Trilux liquid scintillation counter. Percent inhibition at all concentrations tested was calculated, and IC50 values were then determined using a 4‐parameter logistic curve fitting equation.
(§2) Similar methods were used to measure the effects of LY3358966 on other transporters of interest, except that constitutive promoters were used to generate CHO cells over‐expressing human PiT1 and PiT2. The ^33P‐phosphate uptake was measured after 45 min at 20°C for the NPT2a, NPT2c, PiT1, and PiT2 assays. […]

[2] = target: T2, Human PiT1 (Homo sapiens, UniProt Q8WUM9); experiment: 33P-phosphate uptake in CHO cells over-expressing human PiT1; assay type: cell-based
T2 construct: Full Length cDNA Cloning and Generation of Cell Lines Over-Expressing Human NPT2a, NPT2c, Pit1, and Pit2; host or cells: CHO-K1, pcDNA3.1(+), constitutive
T2 sequence (Q8WUM9 1-679): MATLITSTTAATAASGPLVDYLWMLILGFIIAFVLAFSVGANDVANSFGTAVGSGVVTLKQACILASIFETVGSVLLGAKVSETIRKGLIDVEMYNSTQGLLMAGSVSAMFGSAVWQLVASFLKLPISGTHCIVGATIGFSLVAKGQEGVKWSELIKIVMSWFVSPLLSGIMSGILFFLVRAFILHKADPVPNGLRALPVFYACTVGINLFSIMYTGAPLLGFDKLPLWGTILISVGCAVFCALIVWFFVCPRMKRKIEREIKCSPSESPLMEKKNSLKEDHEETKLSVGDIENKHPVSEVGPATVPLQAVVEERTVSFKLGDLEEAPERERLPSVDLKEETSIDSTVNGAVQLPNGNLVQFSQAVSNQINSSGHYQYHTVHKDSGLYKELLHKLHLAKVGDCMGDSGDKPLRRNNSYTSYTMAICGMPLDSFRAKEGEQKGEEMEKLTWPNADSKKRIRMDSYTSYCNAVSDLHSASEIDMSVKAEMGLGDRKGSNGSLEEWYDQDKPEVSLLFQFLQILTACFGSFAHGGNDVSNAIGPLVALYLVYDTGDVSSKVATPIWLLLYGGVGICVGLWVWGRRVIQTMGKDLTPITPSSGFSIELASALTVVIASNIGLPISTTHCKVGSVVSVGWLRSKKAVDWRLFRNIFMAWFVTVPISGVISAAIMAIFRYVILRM
Experimental: as §1, §2

IC50 ([1]; geometric mean, 45 min at 20°C): 11 nM
Selectivity ([1]; ratio of IC50 of human NPT2a assay to that of human NPT2b assay): 0.3
IC50 ([2]; 45 min at 20°C): > 100 µM
Selectivity ([2]; ratio of IC50 of human PiT1 assay to that of human NPT2b assay): >3086
SMILES: CC1(C)CN(C(=O)NCCCCO)CCN1Cc1cccc(C(=O)Nc2sc3c(c2C(=O)Nc2cc(F)c(CCc4ccc(C(=O)O)cc4)c(F)c2)CCCC3)c1 [LY3358966, 4‐[2‐[2,6‐difluoro‐4‐[[2‐[[3‐[[4‐(4‐hydroxybutylcarbamoyl)‐2,2‐dimethyl‐piperazin‐1‐yl]methyl]benzoyl]amino]‐4,5,6,7‐tetrahydrobenzothiophene‐3‐carbonyl]amino]phenyl]ethyl]benzoic acid]
